This is an account of results in ChEMBL document CHEMBL2321873, “1-(4-Phenylpiperazin-1-yl)-2-(1H-pyrazol-1-yl)ethanones as novel CCR1 antagonists” (Bioorg Med Chem Lett, 2013).

Data set [1] has as its target Cytochrome P450 2C19 (Homo sapiens, UniProt P33261). Put plainly: Inhibition of CYP2C19 (unknown origin). The class given is ADME.
For data set [2], the target named is T1, C-C chemokine receptor type 6 (Homo sapiens) (UniProt P51684).
T1 sequence (whole entry): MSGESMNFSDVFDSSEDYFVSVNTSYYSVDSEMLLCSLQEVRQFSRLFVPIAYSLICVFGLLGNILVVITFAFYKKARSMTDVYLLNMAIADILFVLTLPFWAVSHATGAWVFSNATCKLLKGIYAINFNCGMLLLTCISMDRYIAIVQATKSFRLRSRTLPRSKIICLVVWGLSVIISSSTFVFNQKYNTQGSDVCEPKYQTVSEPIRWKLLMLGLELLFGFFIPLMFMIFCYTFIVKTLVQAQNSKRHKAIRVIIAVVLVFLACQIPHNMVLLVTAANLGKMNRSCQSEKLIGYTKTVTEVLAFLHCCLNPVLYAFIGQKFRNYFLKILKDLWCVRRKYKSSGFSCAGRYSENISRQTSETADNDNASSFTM
Put plainly: Binding affinity to CCR6 (unknown origin) at 10 uM by radioligand displacement assay. For orientation: Displacement assays read how much labelled ligand stays bound in the presence of the test substance.

The nature of data set [3]: Plasma clearance in Beagle dog at 1 mg/kg, iv. It counts as ADME, organism-based, Canis lupus familiaris. Set-up: dose 1 mg/kg, route intravenous.
Data set [4] deals with C-X-C chemokine receptor type 4 (Homo sapiens) (UniProt P61073). The experiment in a line: Binding affinity to CXCR4 (unknown origin) at 10 uM by radioligand displacement assay.
Data set [5] can be described thus: Oral bioavailability in Sprague-Dawley rat at 5 mg/kg. It counts as ADME, organism-based. The note with it: in vivo.
In data set [6] the target is T2, G protein-coupled receptor (Human herpesvirus 8) (UniProt Q76SF8).
T2 sequence (whole entry): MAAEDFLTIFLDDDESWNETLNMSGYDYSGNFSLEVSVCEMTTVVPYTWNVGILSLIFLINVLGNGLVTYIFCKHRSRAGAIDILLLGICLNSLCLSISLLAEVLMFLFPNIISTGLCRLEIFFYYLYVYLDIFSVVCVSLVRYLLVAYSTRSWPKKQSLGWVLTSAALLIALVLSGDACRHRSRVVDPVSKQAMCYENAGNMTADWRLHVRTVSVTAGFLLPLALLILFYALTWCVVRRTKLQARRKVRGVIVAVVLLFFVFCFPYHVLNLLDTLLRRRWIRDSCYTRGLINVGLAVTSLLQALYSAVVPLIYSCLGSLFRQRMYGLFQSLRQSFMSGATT
Put plainly: Antagonist activity at HHV8 ORF74 assessed as inhibition of calcium flux at 10 uM. To be noted: Human gammaherpesvirus 8. The class given is functional. (Calcium flux is commonly read through the fluorescence of an indicator in the cells.)

Data set [7] deals with C-C chemokine receptor type 8 (Homo sapiens) (UniProt P51685). The experiment in a line: Binding affinity to CCR8 (unknown origin) at 10 uM by radioligand displacement assay.
Data set [8] addresses T2, G protein-coupled receptor (Human herpesvirus 8). The experiment in a line: Antagonist activity at HHV8 ORF74 assessed as inhibition of chemotaxis at 10 uM. To be noted: Human gammaherpesvirus 8.
The target of data set [9] is T3, C-X-C chemokine receptor type 3 (Homo sapiens) (UniProt P49682).
T3 sequence (whole entry): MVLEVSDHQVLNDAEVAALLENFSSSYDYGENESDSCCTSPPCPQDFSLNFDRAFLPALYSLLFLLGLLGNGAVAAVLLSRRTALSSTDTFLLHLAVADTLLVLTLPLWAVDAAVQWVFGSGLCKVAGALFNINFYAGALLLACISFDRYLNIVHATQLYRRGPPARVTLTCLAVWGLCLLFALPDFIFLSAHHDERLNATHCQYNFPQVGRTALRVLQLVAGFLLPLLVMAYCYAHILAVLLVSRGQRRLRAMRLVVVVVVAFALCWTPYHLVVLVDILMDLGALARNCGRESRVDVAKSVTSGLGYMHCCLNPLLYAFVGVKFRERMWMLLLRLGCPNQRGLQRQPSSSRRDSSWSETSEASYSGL
The experiment in a line: Antagonist activity at CXCR3 (unknown origin) assessed as inhibition of calcium flux at 10 uM. It counts as functional.

Data set [10] deals with C-C chemokine receptor type 5 (Homo sapiens) (UniProt P51681). The experiment in a line: Antagonist activity at CCR5 (unknown origin) assessed as inhibition of calcium flux at 10 uM. The class given is functional.
In data set [11] the target is T4, C-C chemokine receptor type 3 (Homo sapiens) (UniProt P51677).
T4 sequence (whole entry): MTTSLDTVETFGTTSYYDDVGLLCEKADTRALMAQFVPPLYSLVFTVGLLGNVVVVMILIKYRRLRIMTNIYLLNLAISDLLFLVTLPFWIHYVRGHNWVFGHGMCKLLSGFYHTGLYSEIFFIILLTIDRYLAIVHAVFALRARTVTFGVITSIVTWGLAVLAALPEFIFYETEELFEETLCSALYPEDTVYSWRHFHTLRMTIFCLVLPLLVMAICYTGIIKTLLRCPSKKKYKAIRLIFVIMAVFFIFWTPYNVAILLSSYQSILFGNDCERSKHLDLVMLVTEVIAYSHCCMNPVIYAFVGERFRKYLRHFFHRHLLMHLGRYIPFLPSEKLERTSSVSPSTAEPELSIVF
Put plainly: Antagonist activity at CCR3 (unknown origin) assessed as inhibition of calcium flux at 10 uM. It counts as functional.

For data set [12], the target named is Atypical chemokine receptor 3 (Homo sapiens) (UniProt P25106). The experiment in a line: Binding affinity to CXCR7 (unknown origin) at 10 uM by radioligand displacement assay.
Data set [13] has as its target C-C chemokine receptor type 5 (Homo sapiens) (UniProt P51681). Put plainly: Antagonist activity at CCR5 (unknown origin) assessed as inhibition of chemotaxis at 10 uM.
Data set [14] is described as follows: Plasma clearance in Sprague-Dawley rat at 1 mg/kg, iv. It counts as ADME, organism-based. Set-up: dose 1 mg/kg, route intravenous.
In data set [15] the target is T5, CX3C chemokine receptor 1 (Homo sapiens) (UniProt P49238).
T5 sequence (whole entry): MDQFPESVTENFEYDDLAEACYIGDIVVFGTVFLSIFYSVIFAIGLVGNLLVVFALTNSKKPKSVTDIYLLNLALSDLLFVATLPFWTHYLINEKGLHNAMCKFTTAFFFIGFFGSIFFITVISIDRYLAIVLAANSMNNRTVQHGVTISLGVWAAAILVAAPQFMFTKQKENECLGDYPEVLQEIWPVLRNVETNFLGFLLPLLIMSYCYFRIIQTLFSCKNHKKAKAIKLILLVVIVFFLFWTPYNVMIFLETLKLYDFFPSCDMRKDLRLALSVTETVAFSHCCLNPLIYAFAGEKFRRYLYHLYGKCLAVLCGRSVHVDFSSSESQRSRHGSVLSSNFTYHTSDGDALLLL
Put plainly: Antagonist activity at CX3CR1 (unknown origin) assessed as inhibition of chemotaxis at 10 uM.

In data set [16] the target is T6, C-X-C chemokine receptor type 2 (Homo sapiens) (UniProt P25025).
T6 sequence (whole entry): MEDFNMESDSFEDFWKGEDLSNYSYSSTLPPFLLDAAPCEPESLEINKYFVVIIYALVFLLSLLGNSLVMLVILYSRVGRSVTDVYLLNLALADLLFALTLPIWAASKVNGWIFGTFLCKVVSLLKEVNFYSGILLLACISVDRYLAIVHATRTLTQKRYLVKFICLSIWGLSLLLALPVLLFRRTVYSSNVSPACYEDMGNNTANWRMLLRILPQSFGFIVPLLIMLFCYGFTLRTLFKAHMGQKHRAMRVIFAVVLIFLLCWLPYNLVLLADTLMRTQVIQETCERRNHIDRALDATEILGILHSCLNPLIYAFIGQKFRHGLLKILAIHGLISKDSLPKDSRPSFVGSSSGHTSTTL
The experiment in a line: Antagonist activity at CXCR2 (unknown origin) assessed as inhibition of chemotaxis at 10 uM.

Each structure is given as a SMILES string. Calls of active or inactive are those of the source. The rule behind the calls is not given here.

As usually defined, the IC50 is the midpoint of a concentration-inhibition curve. Higher therefore signals weaker potency. The term clearance denotes the rate of elimination divided by the concentration. The term bioavailability denotes the share of a dose that reaches the circulation, judged against a reference dose that is usually intravenous.

Sequence of C-C chemokine receptor type 5 (Homo sapiens) (P51681 whole entry, looked up): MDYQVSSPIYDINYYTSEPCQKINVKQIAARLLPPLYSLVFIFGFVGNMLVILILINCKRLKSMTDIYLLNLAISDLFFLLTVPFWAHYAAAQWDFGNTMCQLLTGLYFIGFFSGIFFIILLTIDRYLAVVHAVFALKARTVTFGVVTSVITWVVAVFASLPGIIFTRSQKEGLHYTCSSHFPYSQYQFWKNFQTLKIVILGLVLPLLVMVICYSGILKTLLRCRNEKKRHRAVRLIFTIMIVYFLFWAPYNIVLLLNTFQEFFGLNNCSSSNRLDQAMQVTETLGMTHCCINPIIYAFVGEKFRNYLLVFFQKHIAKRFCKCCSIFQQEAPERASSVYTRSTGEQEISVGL
Sequence of Atypical chemokine receptor 3 (Homo sapiens) (P25106 whole entry): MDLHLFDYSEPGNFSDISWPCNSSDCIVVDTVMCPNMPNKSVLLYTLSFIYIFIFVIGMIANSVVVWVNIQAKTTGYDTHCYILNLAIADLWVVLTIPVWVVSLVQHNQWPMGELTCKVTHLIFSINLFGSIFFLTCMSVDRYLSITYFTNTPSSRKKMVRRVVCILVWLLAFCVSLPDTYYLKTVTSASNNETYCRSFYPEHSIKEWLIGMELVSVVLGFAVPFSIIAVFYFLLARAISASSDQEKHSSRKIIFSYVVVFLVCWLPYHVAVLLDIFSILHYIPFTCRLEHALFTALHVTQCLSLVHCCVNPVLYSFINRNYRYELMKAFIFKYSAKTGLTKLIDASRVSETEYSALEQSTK
Sequence of Cytochrome P450 2C19 (P33261 whole entry): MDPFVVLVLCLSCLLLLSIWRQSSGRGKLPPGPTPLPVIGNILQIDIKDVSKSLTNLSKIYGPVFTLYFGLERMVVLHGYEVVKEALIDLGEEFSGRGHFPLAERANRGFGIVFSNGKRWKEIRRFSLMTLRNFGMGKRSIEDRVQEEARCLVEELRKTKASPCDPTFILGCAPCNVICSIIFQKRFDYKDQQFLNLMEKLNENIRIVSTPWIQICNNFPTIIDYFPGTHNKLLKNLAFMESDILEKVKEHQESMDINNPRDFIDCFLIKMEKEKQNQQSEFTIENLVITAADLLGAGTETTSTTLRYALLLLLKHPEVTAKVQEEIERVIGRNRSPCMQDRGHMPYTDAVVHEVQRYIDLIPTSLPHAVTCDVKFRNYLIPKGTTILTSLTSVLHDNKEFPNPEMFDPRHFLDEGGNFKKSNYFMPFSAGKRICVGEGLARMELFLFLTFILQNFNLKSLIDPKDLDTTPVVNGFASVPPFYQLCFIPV
Sequence of C-C chemokine receptor type 8 (Homo sapiens) (P51685 whole entry): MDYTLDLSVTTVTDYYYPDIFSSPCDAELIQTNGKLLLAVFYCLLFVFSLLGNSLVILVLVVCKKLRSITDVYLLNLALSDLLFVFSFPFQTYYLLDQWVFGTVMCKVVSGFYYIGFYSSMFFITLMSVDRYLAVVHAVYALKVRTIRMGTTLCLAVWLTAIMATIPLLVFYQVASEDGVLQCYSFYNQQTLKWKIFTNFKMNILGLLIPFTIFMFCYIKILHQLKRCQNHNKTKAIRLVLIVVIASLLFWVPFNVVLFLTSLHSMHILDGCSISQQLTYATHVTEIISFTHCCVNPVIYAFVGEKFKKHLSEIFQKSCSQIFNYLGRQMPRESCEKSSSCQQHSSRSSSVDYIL
Sequence of C-X-C chemokine receptor type 4 (Homo sapiens) (P61073 whole entry): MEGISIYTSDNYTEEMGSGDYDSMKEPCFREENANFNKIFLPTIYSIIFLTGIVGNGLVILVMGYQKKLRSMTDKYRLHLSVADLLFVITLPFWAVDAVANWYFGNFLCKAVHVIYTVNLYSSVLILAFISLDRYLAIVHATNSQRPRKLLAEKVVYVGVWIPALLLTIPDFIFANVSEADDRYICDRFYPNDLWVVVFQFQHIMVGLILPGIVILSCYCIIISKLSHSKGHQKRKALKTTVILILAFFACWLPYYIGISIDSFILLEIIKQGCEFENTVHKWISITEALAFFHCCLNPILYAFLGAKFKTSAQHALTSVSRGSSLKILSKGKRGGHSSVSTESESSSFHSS

The compound `COc1cc(N2CCN(C(=O)Cn3nc(C(F)(F)F)c(Cl)c3C)CC2)ccc1Cl` came in with an IC50 in data set [1] of 6 µM. Besides, the outcome in data set [2], in data set [4], in data set [7] and in [12] was inactive. The clearance was found to be 9.6 mL/min/kg in [3] and 20 mL/min/kg in data set [14]. For the same compound, the bioavailability in data set [5] was 52%. Moreover, the inhibition entry in data set [6], in [8], in data set [9], in data set [10], in data set [11] and in [13] was “inactive” in each case. The inhibition result in data set [15] and in data set [16] was “inactive” each time.
